In the Kinase Knowledgebase extract (Sharma et al. 2016):

These compounds were tested against CDK2 (human) (UniProt P24941) (assay: Enzyme Assay).

IC50, < 1000 nM:
Nc1c(-c2csc(-c3ccncc3)n2)c(=O)[nH]c2ccc(N3CCCCC3)cc12
CC1CC(C)CN(Cc2ccc3cc(-c4csc(-c5ccncc5)n4)c(=O)[nH]c3c2)C1 (stereo not drawn)
COC(=O)c1ccc2cc(-c3csc(N(C)S(=O)(=O)c4ccccc4)n3)c(=O)[nH]c2c1
O=c1[nH]c2ccccc2cc1-c1csc(-c2ccnc(OCCN3CCCCC3)c2)n1
O=c1[nH]c2ccccc2cc1-c1csc(CS(=O)(=O)c2cccs2)n1
CCN(CC)C(=O)c1ccc2cc(-c3csc(N(C)S(=O)(=O)c4ccccc4)n3)c(=O)[nH]c2c1
CC(C)(c1nc(-c2cc3ccccc3[nH]c2=O)cs1)S(=O)(=O)c1ccccc1
Nc1c(-c2csc(-c3ccncc3)n2)c(=O)[nH]c2ccccc12
Cc1onc(-c2ccccc2)c1-c1csc(-c2cc3ccccc3[nH]c2=O)n1
O=c1[nH]c2ccccc2cc1-c1csc(CS(=O)(=O)c2ccccc2)n1
CN1CCN(C(=O)c2ccc3cc(-c4csc(N(C)S(=O)(=O)c5ccccc5)n4)c(=O)[nH]c3c2)CC1
O=c1[nH]c2ccccc2cc1-c1csc(-c2ccc(-c3csnn3)cc2)n1
CN1CCN(c2ccc3[nH]c(=O)c(-c4csc(-c5ccncc5)n4)c(N)c3c2)CC1
CC(C)NCc1ccc2cc(-c3csc(-c4ccncc4)n3)c(=O)[nH]c2c1
CCN(CCN(C)C)C(=O)c1ccc2cc(-c3csc(-c4ccncc4)n3)c(=O)[nH]c2c1
Nc1nc(-c2ccncc2)ncc1-c1nc(-c2cc3ccccc3[nH]c2=O)cs1
CCN(CC)Cc1ccc2cc(-c3csc(CS(=O)(=O)c4ccccc4)n3)c(=O)[nH]c2c1
O=c1[nH]c2cc(CN3CCCC3)ccc2cc1-c1csc(-c2ccncc2)n1
O=c1ccc(-c2nc(-c3cc4ccccc4[nH]c3=O)cs2)c[nH]1
O=c1[nH]c2cc(CN3CC=CCC3)ccc2cc1-c1csc(CS(=O)(=O)c2ccccc2)n1
O=c1[nH]c2ccccc2cc1-c1csc(-c2ccc(O)cc2)n1
O=c1[nH]c2ccccc2cc1-c1csc(-c2cccc(Cl)c2Cl)n1
O=C(c1ccc2cc(-c3csc(CS(=O)(=O)c4ccccc4)n3)c(=O)[nH]c2c1)N1CCCCC1
O=c1[nH]c2cc(CN3CCC3)ccc2cc1-c1csc(-c2ccncc2)n1
CC1CC(C)CN(Cc2ccc3cc(-c4csc(CS(=O)(=O)c5ccccc5)n4)c(=O)[nH]c3c2)C1 (stereo not drawn)
O=c1[nH]c2ccccc2cc1-c1csc(-c2ccnc(N3CCCCC3)c2)n1
CN(C)CCOc1ccc2cc(-c3csc(-c4ccncc4)n3)c(=O)[nH]c2c1
CC(C)CNCc1ccc2cc(-c3csc(-c4ccncc4)n3)c(=O)[nH]c2c1
CN1CCN(C(=O)c2ccc3cc(-c4csc(CS(=O)(=O)c5ccccc5)n4)c(=O)[nH]c3c2)CC1
O=c1[nH]c2cc3c(cc2cc1-c1csc(-c2ccncc2)n1)OCO3
COc1ccc2cc(-c3csc(-c4ccnc(Cl)c4)n3)c(=O)[nH]c2c1
CC(C)N(C)Cc1ccc2cc(-c3csc(CS(=O)(=O)c4ccccc4)n3)c(=O)[nH]c2c1
CCN(CCN(C)C)Cc1ccc2cc(-c3csc(-c4ccncc4)n3)c(=O)[nH]c2c1
O=c1[nH]c2cc(CN3CCCCC3)ccc2cc1-c1csc(-c2ccncc2)n1
CC1CN(Cc2ccc3cc(-c4csc(-c5ccncc5)n4)c(=O)[nH]c3c2)CC(C)O1 (stereo not drawn)
O=C(c1ccc2cc(-c3csc(-c4ccncc4)n3)c(=O)[nH]c2c1)N1CCCCC1
Nc1ccc(-c2nc(-c3cc4ccccc4[nH]c3=O)cs2)cc1
O=c1[nH]c2cc(CO)ccc2cc1-c1csc(CS(=O)(=O)c2ccccc2)n1
CN1CCN(Cc2ccc3cc(-c4csc(CS(=O)(=O)c5ccccc5)n4)c(=O)[nH]c3c2)CC1
O=c1[nH]c2ccc(F)cc2cc1-c1csc(-c2ccncc2)n1
CSc1nc2[nH]c(=O)c(-c3csc(-c4ccncc4)n3)cc2s1
Nc1c(-c2csc(-c3ccncc3)n2)c(=O)[nH]c2ccc(Cl)cc12
O=c1[nH]c2cc(CN3CCOCC3)ccc2cc1-c1csc(-c2ccncc2)n1
CN1CCN(Cc2ccc3cc(-c4csc(-c5ccncc5)n4)c(=O)[nH]c3c2)CC1
O=C(c1ccc2cc(-c3csc(CS(=O)(=O)c4ccccc4)n3)c(=O)[nH]c2c1)N1CCOCC1
O=c1[nH]c2cc(CN3CCC(O)CC3)ccc2cc1-c1csc(-c2ccncc2)n1
O=c1[nH]c2ccccc2cc1-c1csc(-c2cccnc2)n1
CC1CN(Cc2ccc3cc(-c4csc(CS(=O)(=O)c5ccccc5)n4)c(=O)[nH]c3c2)CCN1 (stereo not drawn)
COC(=O)c1cccc2[nH]c(=O)c(-c3csc(-c4ccncc4)n3)cc12
CC(C)N(C)Cc1ccc2cc(-c3csc(-c4ccncc4)n3)c(=O)[nH]c2c1
O=c1[nH]c2ccccc2cc1-c1nc(-c2ccncc2)cs1
CN(c1nc(-c2cc3ccccc3[nH]c2=O)cs1)S(=O)(=O)c1ccc(Br)cc1
CC1CN(Cc2ccc3cc(-c4csc(CS(=O)(=O)c5ccccc5)n4)c(=O)[nH]c3c2)CC(C)O1 (stereo not drawn)
O=c1[nH]c2cc(CN3CCCC(O)C3)ccc2cc1-c1csc(-c2ccncc2)n1 (stereo not drawn)
CN1CCN(C(=O)c2ccc3cc(-c4csc(-c5ccncc5)n4)c(=O)[nH]c3c2)CC1
O=c1[nH]c2cc(OCCN3CCOCC3)ccc2cc1-c1csc(-c2ccncc2)n1
CCN(CC)CCN(C)Cc1ccc2cc(-c3csc(-c4ccncc4)n3)c(=O)[nH]c2c1
CC(C)C(CO)NCc1ccc2cc(-c3csc(-c4ccncc4)n3)c(=O)[nH]c2c1 (stereo not drawn)
CC1CCCN(Cc2ccc3cc(-c4csc(CS(=O)(=O)c5ccccc5)n4)c(=O)[nH]c3c2)C1 (stereo not drawn)
CC1CN(Cc2ccc3cc(-c4csc(-c5ccncc5)n4)c(=O)[nH]c3c2)CCN1 (stereo not drawn)
O=c1[nH]c2cc(C(F)(F)F)ccc2cc1-c1csc(-c2ccc3c(c2)OCO3)n1
O=c1[nH]c2cc(C(F)(F)F)ccc2cc1-c1csc(CS(=O)(=O)c2ccccc2)n1
CN(c1nc(-c2cc3ccccc3[nH]c2=O)cs1)S(=O)(=O)c1ccccc1
CCc1cc(-c2nc(-c3cc4ccccc4[nH]c3=O)cs2)ccn1
CCN(CC)C(=O)c1cccc2[nH]c(=O)c(-c3csc(-c4ccncc4)n3)cc12
O=c1[nH]c2cc(CNC3CCCC3)ccc2cc1-c1csc(-c2ccncc2)n1
C=CCN(c1nc(-c2cc3ccccc3[nH]c2=O)cs1)S(=O)(=O)c1ccccc1
CCN(CC)Cc1ccc2cc(-c3csc(-c4ccncc4)n3)c(=O)[nH]c2c1
COc1ccc2cc(-c3csc(C(C)(C)S(=O)(=O)c4ccccc4)n3)c(=O)[nH]c2c1
CSc1ncc2cc(-c3csc(-c4ccncc4)n3)c(=O)[nH]c2n1
O=c1[nH]c2ccccc2cc1-c1csc(CS(=O)(=O)c2ccccn2)n1
O=c1[nH]c2ccccc2c(O)c1-c1csc(-c2ccncc2)n1
COc1ccc2cc(-c3csc(CS(=O)(=O)c4ccccc4)n3)c(=O)[nH]c2c1
O=c1[nH]c2ccccc2cc1-c1nc(-c2cccc([N+](=O)[O-])c2)cs1
O=c1[nH]c2cc(CN3CCC(O)C3)ccc2cc1-c1csc(-c2ccncc2)n1 (stereo not drawn)
O=c1[nH]c2cc(O)ccc2cc1-c1csc(CS(=O)(=O)c2ccccc2)n1
CCN(CC)CCOc1cc(-c2nc(-c3cc4ccccc4[nH]c3=O)cs2)ccn1
CC(C)NC[C@H]1CCCN1Cc1ccc2cc(-c3csc(CS(=O)(=O)c4ccccc4)n3)c(=O)[nH]c2c1
O=c1[nH]c2cc(C(F)(F)F)ccc2cc1-c1csc(-c2ccncc2)n1
CN(c1nc(-c2cc3ccccc3[nH]c2=O)cs1)S(=O)(=O)c1cccc(F)c1
COc1cc2[nH]c(=O)c(-c3csc(-c4ccncc4)n3)c(N)c2cc1OC
O=c1[nH]c2ccccc2cc1-c1csc(-c2ccnc(NCCCO)c2)n1
O=c1[nH]c2ccccc2cc1-c1csc(-c2ccncc2)n1
COc1ccc(-c2nc(-c3cc4ccccc4[nH]c3=O)cs2)cn1
CCNCCNc1ncc2cc(-c3csc(-c4ccncc4)n3)c(=O)[nH]c2n1
O=c1[nH]c2cc(C(F)(F)F)ccc2cc1-c1csc(CS(=O)(=O)c2cccs2)n1
O=c1[nH]c2cc(CO)ccc2cc1-c1csc(-c2ccncc2)n1
CC1CCCN(Cc2ccc3cc(-c4csc(-c5ccncc5)n4)c(=O)[nH]c3c2)C1 (stereo not drawn)
